The target in assay [1] is Serine/threonine-protein kinase DCLK2 (Homo sapiens) (UniProt Q8N568). Kind of assay: Inhibition of DCAMKL2 (unknown origin) at 0.164 uM relative to control.
The target of assay [2] is T1, Testis-specific serine/threonine-protein kinase 2 (Homo sapiens) (UniProt Q96PF2).
T1 sequence (whole entry): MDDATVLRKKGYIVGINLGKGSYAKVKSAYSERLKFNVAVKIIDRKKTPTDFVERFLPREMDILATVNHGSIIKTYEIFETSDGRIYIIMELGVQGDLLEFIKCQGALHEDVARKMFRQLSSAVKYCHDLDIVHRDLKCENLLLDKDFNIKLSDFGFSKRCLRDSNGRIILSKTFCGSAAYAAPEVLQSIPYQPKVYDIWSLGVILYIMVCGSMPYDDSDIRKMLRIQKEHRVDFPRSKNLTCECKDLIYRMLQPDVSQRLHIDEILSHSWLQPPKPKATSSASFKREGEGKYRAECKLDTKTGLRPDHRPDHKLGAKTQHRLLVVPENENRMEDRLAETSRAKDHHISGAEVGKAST
Kind of assay: Inhibition of TSSK2 (unknown origin) at 0.164 uM relative to control.

In assay [3] the target is T2, AMP-activated protein kinase, AMPK (Homo sapiens) (UniProt P54646+O43741+P54619+Q9UGJ0+Q9Y478+Q13131+Q9UGI9). Kind of assay: Inhibition of AMPK (unknown origin) at 0.164 uM relative to control. Format: protein-complex assay.
For assay [4], the target named is T3, Tyrosine-protein kinase TXK (Homo sapiens) (UniProt P42681).
T3 sequence (whole entry): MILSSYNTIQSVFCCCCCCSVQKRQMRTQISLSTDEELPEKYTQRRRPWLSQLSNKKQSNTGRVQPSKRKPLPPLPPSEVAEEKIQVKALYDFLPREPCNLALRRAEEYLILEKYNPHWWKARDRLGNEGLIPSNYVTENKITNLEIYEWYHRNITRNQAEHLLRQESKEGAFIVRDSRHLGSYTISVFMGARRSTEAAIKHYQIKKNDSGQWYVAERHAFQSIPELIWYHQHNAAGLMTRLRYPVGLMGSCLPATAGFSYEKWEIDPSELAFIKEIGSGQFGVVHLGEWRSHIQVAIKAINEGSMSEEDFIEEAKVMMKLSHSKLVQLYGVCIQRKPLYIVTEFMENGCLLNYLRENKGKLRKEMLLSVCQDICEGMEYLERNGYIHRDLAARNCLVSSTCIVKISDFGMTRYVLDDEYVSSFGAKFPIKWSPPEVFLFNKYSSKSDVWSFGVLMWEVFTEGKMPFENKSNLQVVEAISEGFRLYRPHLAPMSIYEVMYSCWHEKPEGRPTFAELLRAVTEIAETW
Kind of assay: Inhibition of TXK (unknown origin) at 0.164 uM relative to control.

The target of assay [5] is MAP/microtubule affinity-regulating kinase 3 (Homo sapiens) (UniProt P27448). As to the kind of experiment: Inhibition of c-TAK1 (unknown origin) at 0.164 uM relative to control.
MAP/microtubule affinity-regulating kinase 3 (Homo sapiens), sequence (P27448 whole entry, looked up): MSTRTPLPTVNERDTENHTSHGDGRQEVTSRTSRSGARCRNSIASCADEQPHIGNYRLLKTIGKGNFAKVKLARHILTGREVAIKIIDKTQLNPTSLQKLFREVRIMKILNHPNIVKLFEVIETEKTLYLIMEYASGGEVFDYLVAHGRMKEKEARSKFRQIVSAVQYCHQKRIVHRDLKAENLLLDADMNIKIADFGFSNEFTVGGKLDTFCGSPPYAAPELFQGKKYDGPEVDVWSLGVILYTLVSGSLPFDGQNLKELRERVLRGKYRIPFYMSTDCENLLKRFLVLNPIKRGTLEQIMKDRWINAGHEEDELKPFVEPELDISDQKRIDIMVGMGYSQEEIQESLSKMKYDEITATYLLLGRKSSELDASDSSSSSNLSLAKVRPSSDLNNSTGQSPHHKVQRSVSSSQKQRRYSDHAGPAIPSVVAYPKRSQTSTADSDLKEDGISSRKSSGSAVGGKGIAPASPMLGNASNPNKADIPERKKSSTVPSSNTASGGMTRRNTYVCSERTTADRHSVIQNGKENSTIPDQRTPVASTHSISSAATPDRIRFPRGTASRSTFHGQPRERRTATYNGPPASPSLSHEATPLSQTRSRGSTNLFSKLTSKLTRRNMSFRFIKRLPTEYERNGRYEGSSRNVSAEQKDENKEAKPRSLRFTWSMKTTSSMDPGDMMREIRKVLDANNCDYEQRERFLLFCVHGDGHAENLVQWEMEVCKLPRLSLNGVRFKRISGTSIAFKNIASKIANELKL
For assay [6], the target named is Tyrosine-protein kinase JAK2 (Homo sapiens) (UniProt O60674). As to the kind of experiment: Inhibition of JAK2 (unknown origin) at 0.164 uM relative to control.
The target in assay [7] is Tyrosine-protein kinase JAK3 (Homo sapiens) (UniProt P52333). As to the kind of experiment: Inhibition of JAK3 (unknown origin) at 0.164 uM relative to control.
Assay [8] has as its target RAC-beta serine/threonine-protein kinase (Homo sapiens) (UniProt P31751). Kind of assay: Inhibition of AKT2 (unknown origin) at 0.164 uM relative to control.
In assay [9] the target is Fibroblast growth factor receptor 1 (Homo sapiens) (UniProt P11362). Kind of assay: Inhibition of FGFR1 (unknown origin) at 0.164 uM relative to control.
Assay [10] concerns the target Mitogen-activated protein kinase 14 (Homo sapiens) (UniProt Q16539). As to the kind of experiment: Inhibition of p38a (unknown origin) at 0.164 uM relative to control.
Assay [11] concerns the target Homeodomain-interacting protein kinase 1 (Homo sapiens) (UniProt Q86Z02). As to the kind of experiment: Inhibition of HIPK1 (unknown origin) at 0.164 uM relative to control.
Assay [12] deals with Insulin receptor (Homo sapiens) (UniProt P06213). As to the kind of experiment: Inhibition of INSR (unknown origin) at 0.164 uM relative to control.
Insulin receptor (Homo sapiens), sequence (P06213 28-758 limits assumed): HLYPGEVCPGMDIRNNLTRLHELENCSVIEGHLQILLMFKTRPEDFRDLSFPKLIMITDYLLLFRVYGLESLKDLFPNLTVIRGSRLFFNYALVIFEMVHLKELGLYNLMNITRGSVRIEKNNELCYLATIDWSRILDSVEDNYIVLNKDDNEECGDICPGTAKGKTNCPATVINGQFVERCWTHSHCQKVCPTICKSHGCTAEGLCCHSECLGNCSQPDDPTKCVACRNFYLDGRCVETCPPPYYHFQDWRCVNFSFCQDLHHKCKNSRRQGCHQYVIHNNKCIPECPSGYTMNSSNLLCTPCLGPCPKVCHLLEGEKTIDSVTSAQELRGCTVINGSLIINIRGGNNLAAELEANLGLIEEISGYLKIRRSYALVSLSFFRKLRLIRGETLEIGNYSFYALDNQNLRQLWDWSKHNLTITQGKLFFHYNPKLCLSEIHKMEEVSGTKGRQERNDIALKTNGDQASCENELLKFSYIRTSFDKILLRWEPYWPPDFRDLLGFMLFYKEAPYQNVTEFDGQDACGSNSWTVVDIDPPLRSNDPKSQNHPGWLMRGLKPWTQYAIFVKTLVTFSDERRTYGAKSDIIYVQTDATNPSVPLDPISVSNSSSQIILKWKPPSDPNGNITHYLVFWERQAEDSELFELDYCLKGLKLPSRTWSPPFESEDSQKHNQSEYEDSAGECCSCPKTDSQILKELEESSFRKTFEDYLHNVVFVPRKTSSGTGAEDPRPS
Insulin receptor (Homo sapiens), sequence (P06213 763-1382 limits assumed): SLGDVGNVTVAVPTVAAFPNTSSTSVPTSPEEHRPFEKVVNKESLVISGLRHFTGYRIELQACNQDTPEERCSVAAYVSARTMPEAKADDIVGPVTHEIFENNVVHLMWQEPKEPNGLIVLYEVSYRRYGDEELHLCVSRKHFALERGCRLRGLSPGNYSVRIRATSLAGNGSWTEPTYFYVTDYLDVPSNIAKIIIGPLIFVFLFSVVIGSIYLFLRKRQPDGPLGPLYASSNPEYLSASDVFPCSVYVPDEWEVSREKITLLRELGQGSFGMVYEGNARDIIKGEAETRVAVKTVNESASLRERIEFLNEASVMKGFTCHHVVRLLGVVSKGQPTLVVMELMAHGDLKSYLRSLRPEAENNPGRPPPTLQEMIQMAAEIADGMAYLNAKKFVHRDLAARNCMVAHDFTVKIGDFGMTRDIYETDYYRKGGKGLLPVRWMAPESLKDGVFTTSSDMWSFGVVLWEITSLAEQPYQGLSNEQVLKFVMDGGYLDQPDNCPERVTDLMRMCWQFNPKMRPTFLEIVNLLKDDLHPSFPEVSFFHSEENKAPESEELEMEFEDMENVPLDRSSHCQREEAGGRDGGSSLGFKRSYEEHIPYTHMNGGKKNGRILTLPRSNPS
In assay [13] the target is Serine/threonine-protein kinase PAK 4 (Homo sapiens) (UniProt O96013). As to the kind of experiment: Inhibition of PAK4 (unknown origin) at 0.164 uM relative to control.
The target in assay [14] is T4, Ribosomal protein S6 kinase (Homo sapiens) (UniProt P51812+Q9UBS0+O75676+Q15349+O75582+P23443+Q9UK32+Q15418). As to the kind of experiment: Inhibition of p70S6K (unknown origin) at 0.45 uM relative to control. Format: protein assay.
In assay [15] the target is Ribosomal protein S6 kinase alpha-5 (Homo sapiens) (UniProt O75582). Kind of assay: Inhibition of MSK1 (unknown origin) at 0.19 uM relative to control.
Ribosomal protein S6 kinase alpha-5 (Homo sapiens), sequence (O75582 whole entry, looked up): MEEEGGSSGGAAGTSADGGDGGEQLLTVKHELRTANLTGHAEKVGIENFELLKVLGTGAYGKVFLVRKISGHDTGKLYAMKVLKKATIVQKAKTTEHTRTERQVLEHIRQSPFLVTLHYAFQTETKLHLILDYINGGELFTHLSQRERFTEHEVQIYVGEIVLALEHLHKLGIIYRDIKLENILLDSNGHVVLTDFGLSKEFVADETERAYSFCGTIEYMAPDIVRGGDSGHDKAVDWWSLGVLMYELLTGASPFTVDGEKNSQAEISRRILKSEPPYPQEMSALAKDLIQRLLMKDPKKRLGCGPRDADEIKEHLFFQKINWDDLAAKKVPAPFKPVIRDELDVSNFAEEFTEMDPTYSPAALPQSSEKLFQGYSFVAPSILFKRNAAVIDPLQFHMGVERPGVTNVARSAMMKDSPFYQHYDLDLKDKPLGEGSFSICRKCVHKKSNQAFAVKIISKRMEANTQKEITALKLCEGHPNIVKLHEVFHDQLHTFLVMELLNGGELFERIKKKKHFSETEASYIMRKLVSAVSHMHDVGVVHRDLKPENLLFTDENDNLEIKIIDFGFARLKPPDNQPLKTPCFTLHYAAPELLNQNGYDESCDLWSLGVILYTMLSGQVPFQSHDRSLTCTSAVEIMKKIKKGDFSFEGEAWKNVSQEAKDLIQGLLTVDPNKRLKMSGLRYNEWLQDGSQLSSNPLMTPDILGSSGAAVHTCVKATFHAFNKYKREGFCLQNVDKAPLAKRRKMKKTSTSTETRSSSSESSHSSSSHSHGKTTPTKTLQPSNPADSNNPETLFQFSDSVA
The target in assay [16] is Ribosomal protein S6 kinase alpha-4 (Homo sapiens) (UniProt O75676). Kind of assay: Inhibition of MSK2 (unknown origin) at 0.19 uM relative to control.
Assay [17] deals with Dual specificity tyrosine-phosphorylation-regulated kinase 1B (Homo sapiens) (UniProt Q9Y463). As to the kind of experiment: Inhibition of DYRK1B (unknown origin) at 0.19 uM relative to control.
Dual specificity tyrosine-phosphorylation-regulated kinase 1B (Homo sapiens), sequence (Q9Y463 whole entry, looked up): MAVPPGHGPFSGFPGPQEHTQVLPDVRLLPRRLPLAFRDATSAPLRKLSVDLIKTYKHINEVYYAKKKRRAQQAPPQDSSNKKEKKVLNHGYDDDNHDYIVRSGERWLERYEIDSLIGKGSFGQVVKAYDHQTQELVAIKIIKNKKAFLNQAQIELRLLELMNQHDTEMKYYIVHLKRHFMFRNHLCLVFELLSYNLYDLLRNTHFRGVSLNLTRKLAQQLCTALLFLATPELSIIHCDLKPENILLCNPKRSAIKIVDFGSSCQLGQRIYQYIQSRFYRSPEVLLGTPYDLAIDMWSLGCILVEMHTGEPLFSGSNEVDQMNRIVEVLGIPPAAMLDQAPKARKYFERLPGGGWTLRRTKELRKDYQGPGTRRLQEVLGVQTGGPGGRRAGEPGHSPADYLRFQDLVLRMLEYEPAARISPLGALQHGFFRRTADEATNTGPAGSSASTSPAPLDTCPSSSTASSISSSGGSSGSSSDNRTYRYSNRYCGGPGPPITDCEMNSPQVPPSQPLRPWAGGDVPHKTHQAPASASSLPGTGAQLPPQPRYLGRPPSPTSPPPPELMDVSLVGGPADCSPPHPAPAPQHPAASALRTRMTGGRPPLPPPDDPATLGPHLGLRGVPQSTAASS
Assay [18] addresses T2, AMP-activated protein kinase, AMPK (Homo sapiens). As to the kind of experiment: Inhibition of AMPK (unknown origin) at 0.19 uM relative to control. Type of assay: protein-complex assay.
Assay [19] deals with T4, Ribosomal protein S6 kinase (Homo sapiens). Kind of assay: Inhibition of p70S6K (unknown origin) at 0.19 uM relative to control. Format: protein assay.
For assay [20], the target named is Vascular endothelial growth factor receptor 3 (Homo sapiens) (UniProt P35916). Kind of assay: Inhibition of FLT4 (unknown origin) at 0.19 uM relative to control.
For assay [21], the target named is Dual specificity protein kinase CLK2 (Homo sapiens) (UniProt P49760). Kind of assay: Inhibition of CLK2 (unknown origin) at 0.19 uM relative to control.
Assay [22] has as its target Tyrosine-protein kinase Lyn (Homo sapiens) (UniProt P07948). As to the kind of experiment: Inhibition of LYNB (unknown origin) at 0.19 uM relative to control.
The target in assay [23] is Ephrin type-B receptor 3 (Homo sapiens) (UniProt P54753). Kind of assay: Inhibition of EPHB3 (unknown origin) at 0.19 uM relative to control.
Assay [24] concerns the target Casein kinase I isoform gamma-2 (Homo sapiens) (UniProt P78368). As to the kind of experiment: Inhibition of CK1-gamma2 (unknown origin) at 0.19 uM relative to control.
The target of assay [25] is Interleukin-1 receptor-associated kinase 1 (Homo sapiens) (UniProt P51617). As to the kind of experiment: Inhibition of IRAK1 (unknown origin) at 0.19 uM relative to control.
The target of assay [26] is Tyrosine-protein kinase Lck (Homo sapiens) (UniProt P06239). As to the kind of experiment: Inhibition of LCK (unknown origin) at 0.19 uM relative to control.
Tyrosine-protein kinase Lck (Homo sapiens), sequence (P06239 2-509 limits assumed): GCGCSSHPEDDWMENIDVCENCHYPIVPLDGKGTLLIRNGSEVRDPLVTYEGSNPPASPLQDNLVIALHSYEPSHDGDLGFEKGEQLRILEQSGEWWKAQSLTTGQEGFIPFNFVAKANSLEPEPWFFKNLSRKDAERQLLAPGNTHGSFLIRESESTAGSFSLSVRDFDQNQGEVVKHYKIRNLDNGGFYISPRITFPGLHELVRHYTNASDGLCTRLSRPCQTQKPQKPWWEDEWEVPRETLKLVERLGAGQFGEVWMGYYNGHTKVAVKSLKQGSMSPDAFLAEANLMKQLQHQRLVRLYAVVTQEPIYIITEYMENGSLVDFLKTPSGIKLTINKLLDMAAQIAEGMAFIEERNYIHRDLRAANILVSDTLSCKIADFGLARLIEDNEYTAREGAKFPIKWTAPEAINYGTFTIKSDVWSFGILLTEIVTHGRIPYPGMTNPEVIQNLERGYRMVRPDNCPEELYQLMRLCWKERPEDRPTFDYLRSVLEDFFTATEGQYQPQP
Assay [27] concerns the target Serine/threonine-protein kinase 25 (Homo sapiens) (UniProt O00506). Kind of assay: Inhibition of YSK (unknown origin) at 0.19 uM relative to control.
Assay [28] has as its target Discoidin domain-containing receptor 2 (Homo sapiens) (UniProt Q16832). As to the kind of experiment: Inhibition of DDR2 (unknown origin) at 0.19 uM relative to control.

The values below come from ChEMBL document CHEMBL4118098, “Discovery of DS28120313 as a potent orally active hepcidin production inhibitor: Design and optimization of novel 4,6-disubstituted indazole derivatives” (Bioorg Med Chem Lett, 2017).

The term inhibition denotes the drop in the measured response relative to a control, in per cent.

Serine/threonine-protein kinase 25 (Homo sapiens), sequence (O00506 whole entry, looked up, the tested form may be a part): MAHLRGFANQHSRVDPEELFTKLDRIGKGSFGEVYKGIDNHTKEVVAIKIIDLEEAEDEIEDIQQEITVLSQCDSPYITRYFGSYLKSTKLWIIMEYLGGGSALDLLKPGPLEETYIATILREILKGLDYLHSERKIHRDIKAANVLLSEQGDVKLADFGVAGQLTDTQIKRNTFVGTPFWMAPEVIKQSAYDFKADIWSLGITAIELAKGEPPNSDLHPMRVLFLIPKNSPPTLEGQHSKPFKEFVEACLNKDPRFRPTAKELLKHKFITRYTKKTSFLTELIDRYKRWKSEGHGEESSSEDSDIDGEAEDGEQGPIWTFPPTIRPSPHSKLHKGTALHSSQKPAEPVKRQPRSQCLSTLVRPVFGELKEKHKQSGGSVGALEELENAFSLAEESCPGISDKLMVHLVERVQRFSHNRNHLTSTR
RAC-beta serine/threonine-protein kinase (Homo sapiens), sequence (P31751 whole entry): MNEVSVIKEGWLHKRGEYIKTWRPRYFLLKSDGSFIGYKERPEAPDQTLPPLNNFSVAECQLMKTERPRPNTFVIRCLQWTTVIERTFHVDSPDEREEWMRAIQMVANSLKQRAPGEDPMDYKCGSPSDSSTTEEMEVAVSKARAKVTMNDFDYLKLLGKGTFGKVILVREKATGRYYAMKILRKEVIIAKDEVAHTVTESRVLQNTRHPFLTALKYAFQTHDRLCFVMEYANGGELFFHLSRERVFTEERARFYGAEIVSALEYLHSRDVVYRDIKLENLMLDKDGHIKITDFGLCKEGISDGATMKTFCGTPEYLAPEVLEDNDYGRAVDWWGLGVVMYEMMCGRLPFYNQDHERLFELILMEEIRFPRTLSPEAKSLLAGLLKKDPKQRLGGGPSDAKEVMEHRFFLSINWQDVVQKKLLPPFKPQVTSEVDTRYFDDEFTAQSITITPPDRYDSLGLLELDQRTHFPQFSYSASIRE

In the case of `COC(=O)Nc1cc(-c2c(C3CC3)n[nH]c2C)cc2[nH]ncc12`, the inhibition was -1.3% in assay [1]; -5.7% in assay [2]; 10.7% in assay [3]; 1.3% in [4]; 2% in [5]; -4.3% in assay [6]. Moreover, the inhibition was 0% in assay [7]; 1.3% in assay [8]; 9.7% in assay [9]; 5.7% in [10]; 0% in assay [11]; -6% in assay [12]. The inhibition in assay [13] was 5.7%.
Regarding `Cc1n[nH]c(C)c1-c1ccc2c(NC(=O)c3ccc(N4CCN(C)CC4)cc3)n[nH]c2c1`, the inhibition in assay [14] worked out at 1.3%.
Regarding `Cc1[nH]nc(C2CC2)c1-c1ccc2c(-c3ccc(N4CCN(C)CC4)nc3)n[nH]c2c1`, the inhibition in assay [15] was 1.3%; in [16], -3.3%; in [17] it was 3%; in [18] it was 38.7%; in assay [19], 5.7%; in assay [20], 28.3%. Moreover, the inhibition in assay [21] was -0.3%; in [22], 10.7%; in assay [23], 1%; in assay [24] it was 3.3%; in assay [25], -2.7%; in assay [26], 26.7%. In addition, the inhibition in assay [27] is 20%; in assay [28], 5.3%.
